Source: PMC10140010 (Investigational New Drugs, 2023)
“And” between values parts separate entries of the source, which are not always exact repeats. Equal entries are not always repeated.

What was measured:
PKA = PKA (Homo sapiens, UniProt P17612); assay: Z'-LYTE kinase selectivity; assay type: biochemical
MINK = MINK (Homo sapiens, UniProt Q8N4C8); assay: Z'-LYTE kinase selectivity; assay type: biochemical
INSR = INSR (Homo sapiens, UniProt P06213); assay: Z'-LYTE kinase selectivity; assay type: biochemical
MST4 = MST4 (Homo sapiens, UniProt Q9P289); assay: Z'-LYTE kinase selectivity; assay type: biochemical
Chain of MST4 (Q9P289 whole entry): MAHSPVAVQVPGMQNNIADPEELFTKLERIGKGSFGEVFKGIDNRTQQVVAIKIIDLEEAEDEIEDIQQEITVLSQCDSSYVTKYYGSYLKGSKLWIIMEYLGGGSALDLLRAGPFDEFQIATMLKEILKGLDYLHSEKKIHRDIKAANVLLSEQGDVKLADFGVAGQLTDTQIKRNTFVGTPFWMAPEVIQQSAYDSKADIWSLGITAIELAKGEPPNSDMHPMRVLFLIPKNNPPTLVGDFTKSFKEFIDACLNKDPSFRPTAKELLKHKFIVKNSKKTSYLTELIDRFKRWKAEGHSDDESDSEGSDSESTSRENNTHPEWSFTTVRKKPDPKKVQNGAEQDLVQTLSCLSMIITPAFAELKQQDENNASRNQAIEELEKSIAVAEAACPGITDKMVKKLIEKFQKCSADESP

[1] = system: LU-01-0015 (HIP-ALK) patient derived lung-tumor xenografts; assay: LU-01-0015 patient-derived xenograft model (tumor volume, body weight); assay type: in vivo, BALB/c nude mice; conditions: for Tumor volume Mean: group mean; for Tumor volume: individual mouse, in mm³
Method: Female BALB/c nude mice (4–6 weeks old) were provided by Shanghai Sipple-Bikai Laboratory Animal Co., Ltd. and Beijing Vital River Laboratory Animal Technology Co., Ltd. The mice were housed in a specific pathogen-free environment under a 12 h light/dark cycle, and had free access to sterile animal feed and water.
PDX and CDX models were used for in vivo studies. Patient-derived tumors tissues were divided into about 30 mm^3 and transplanted into the right dorsal subcutis. Treatment began when the tumor size reached to 200 mm^3. The mice were randomly assignied into the corresponding dosing groups (9 mice in each group). Drugs were deliverd via daily oral for 4 weeks. Tumor size was measured periodically using a digital caliper (Cal Pro, Sylvac, Switzerland), and tumor volume was calculated as 0.5 × length × width^2. For more detailed information, please refer to Supplementary materials. All procedures and protocols of xenograft models were approved by the Institutional Animal Care and Use Committee of WuXi AppTec.
Patient-derived tumor tissue was segmented into small pieces of approximately 20–30 mm^3 and transplanted subcutaneously into the right back of mice. When the tumor volume reached 150-200 mm^3, the mice were randomly divided into corresponding groups (9 mice in each group, female). Administered by gavage once daily for 4 weeks.

[2] = system: Ba/F3 (EML4-ALK^WT) cells; assay: Cell proliferation (CellTiter-Glo); assay type: cell-based; conditions: Mus musculus, BaF3
Method: (§1) Cell proliferation assay was performed using methods reported in the previous article. Cell proliferation was measured using the CellTiter-Glo® (CTG) Luminescent Cell Viability Assay (Promega, WI, USA). Cells were seeded in 96-well plates at 15,000 cells per well in detection medium containing 0.5% fetal bovine serum and placed in an incubator at 37℃ and 5% CO2 overnight. On the following day, iruplinalkib was serially diluted with DMSO, further diluted in assay medium, and added to the designated wells for serial dilution of iruplinalkib to the target gradient concentration.
(§2) Transfection was performed when cell confluent reached 70–90% in 12-well plates. Opti-MEM medium was used to dilute Lipofectamine 3000 reagent (ThermoFisher, MA, USA) and siRNA separately and mixed well. The mixture was added to the cells after incubation at room temperature for 15 min, then at 37℃ for 2–4 days.

[3] = system: Ba/F3 (EML4-ALK^C1156Y) cells; assay: Cell proliferation (CellTiter-Glo); assay type: cell-based; conditions: Mus musculus, BaF3
Method: as §1, §2

MAPKAPK2 = MAPKAPK2 (Homo sapiens, UniProt P49137); assay: Z'-LYTE kinase selectivity; assay type: biochemical
Chain of MAPKAPK2 (P49137 whole entry): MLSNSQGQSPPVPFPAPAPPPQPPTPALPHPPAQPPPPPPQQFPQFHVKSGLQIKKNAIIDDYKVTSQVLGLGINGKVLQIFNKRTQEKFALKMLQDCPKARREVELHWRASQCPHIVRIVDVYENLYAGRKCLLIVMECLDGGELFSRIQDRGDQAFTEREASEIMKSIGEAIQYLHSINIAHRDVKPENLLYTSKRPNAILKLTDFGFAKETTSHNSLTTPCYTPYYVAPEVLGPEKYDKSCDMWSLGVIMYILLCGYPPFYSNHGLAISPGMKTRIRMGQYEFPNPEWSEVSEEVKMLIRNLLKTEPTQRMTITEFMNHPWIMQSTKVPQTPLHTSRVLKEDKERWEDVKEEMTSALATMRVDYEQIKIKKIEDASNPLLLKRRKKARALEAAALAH

KDR = KDR (Homo sapiens, UniProt P35968); assay: Z'-LYTE kinase selectivity; assay type: biochemical; conditions: read-out: IC50 KDR
Chain of KDR (P35968 20-1356): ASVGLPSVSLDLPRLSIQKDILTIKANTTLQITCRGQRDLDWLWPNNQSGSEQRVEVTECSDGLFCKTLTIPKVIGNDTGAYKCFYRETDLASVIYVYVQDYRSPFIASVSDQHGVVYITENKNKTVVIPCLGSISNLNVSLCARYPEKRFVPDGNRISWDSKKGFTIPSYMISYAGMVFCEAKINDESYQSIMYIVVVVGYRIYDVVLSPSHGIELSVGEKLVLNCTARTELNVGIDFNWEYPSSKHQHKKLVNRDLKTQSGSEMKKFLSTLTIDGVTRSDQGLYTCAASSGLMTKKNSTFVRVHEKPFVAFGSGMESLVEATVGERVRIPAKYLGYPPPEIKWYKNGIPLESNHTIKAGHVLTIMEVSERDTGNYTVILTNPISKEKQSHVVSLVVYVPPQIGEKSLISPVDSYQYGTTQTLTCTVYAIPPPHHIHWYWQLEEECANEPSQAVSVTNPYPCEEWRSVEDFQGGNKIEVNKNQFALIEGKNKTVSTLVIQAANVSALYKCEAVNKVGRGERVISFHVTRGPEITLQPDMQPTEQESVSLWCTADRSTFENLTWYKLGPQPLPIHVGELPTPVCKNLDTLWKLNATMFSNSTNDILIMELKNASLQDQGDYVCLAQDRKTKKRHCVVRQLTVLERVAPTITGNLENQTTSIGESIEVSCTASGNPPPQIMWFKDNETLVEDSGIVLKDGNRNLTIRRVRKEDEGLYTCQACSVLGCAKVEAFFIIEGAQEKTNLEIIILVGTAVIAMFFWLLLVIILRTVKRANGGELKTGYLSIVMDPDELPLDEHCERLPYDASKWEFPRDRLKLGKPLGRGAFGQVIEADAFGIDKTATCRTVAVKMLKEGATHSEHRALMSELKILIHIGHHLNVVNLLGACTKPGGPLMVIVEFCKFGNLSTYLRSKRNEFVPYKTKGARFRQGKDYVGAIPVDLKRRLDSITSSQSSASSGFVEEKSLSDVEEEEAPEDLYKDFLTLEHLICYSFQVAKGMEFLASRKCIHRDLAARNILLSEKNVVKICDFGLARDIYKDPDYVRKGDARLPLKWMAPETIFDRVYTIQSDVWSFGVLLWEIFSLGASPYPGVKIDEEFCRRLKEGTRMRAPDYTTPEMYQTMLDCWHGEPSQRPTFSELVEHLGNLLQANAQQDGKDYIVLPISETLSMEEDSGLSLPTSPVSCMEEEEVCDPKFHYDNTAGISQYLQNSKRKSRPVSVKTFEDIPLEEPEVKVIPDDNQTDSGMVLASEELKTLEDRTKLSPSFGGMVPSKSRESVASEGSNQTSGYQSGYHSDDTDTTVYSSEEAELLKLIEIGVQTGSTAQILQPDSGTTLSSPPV

[4] = system: Ba/F3 (SLC34A2-ROS1) cells; assay: Cell proliferation (CellTiter-Glo); assay type: cell-based; conditions: Mus musculus, BaF3
Method: as §1

Ba/F3 cells = assay: Cell proliferation (CellTiter-Glo); assay type: cell-based; conditions: Mus musculus, BaF3
Method: as §1

[5] = system: NIH-3T3 (CD74-ROS1) cells; assay: Cell proliferation (CellTiter-Glo); assay type: cell-based; conditions: Mus musculus, NIH3T3
Method: as §1

[6] = system: Karpas299 (NPM-ALK) cells; assay: Cell proliferation (CellTiter-Glo); assay type: cell-based
Method: as §1

[7] = system: NCI-H1975 (EGFR^L858R/T790M) cells; assay: Cell proliferation (CellTiter-Glo); assay type: cell-based; conditions: Homo sapiens, NCI-H1975
Method: as §1

[8] = system: HCC-78 (SLC34A2-ROS1) cells; assay: Cell proliferation (CellTiter-Glo); assay type: cell-based; conditions: Homo sapiens, HCC78
Method: as §1

CHK1 = CHK1 (Homo sapiens, UniProt O14757); assay: Z'-LYTE kinase selectivity; assay type: biochemical
Chain of CHK1 (O14757 whole entry): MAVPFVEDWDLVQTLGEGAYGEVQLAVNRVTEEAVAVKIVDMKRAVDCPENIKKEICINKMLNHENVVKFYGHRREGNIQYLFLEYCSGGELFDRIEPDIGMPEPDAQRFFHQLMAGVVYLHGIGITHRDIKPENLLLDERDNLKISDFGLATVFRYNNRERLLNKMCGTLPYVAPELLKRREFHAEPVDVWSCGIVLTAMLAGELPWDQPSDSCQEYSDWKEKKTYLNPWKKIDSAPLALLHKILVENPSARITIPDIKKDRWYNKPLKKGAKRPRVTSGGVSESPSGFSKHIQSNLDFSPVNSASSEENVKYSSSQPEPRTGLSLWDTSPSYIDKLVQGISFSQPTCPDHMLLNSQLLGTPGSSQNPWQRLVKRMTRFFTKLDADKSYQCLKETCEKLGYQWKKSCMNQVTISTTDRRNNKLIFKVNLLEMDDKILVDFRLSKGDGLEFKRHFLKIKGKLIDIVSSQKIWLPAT

TAOK2 = TAOK2 (Homo sapiens, UniProt Q9UL54); assay: Z'-LYTE kinase selectivity; assay type: biochemical
JAK2 = JAK2 (Homo sapiens, UniProt O60674); assay: Z'-LYTE kinase selectivity; assay type: biochemical
Chain of JAK2 (O60674 whole entry): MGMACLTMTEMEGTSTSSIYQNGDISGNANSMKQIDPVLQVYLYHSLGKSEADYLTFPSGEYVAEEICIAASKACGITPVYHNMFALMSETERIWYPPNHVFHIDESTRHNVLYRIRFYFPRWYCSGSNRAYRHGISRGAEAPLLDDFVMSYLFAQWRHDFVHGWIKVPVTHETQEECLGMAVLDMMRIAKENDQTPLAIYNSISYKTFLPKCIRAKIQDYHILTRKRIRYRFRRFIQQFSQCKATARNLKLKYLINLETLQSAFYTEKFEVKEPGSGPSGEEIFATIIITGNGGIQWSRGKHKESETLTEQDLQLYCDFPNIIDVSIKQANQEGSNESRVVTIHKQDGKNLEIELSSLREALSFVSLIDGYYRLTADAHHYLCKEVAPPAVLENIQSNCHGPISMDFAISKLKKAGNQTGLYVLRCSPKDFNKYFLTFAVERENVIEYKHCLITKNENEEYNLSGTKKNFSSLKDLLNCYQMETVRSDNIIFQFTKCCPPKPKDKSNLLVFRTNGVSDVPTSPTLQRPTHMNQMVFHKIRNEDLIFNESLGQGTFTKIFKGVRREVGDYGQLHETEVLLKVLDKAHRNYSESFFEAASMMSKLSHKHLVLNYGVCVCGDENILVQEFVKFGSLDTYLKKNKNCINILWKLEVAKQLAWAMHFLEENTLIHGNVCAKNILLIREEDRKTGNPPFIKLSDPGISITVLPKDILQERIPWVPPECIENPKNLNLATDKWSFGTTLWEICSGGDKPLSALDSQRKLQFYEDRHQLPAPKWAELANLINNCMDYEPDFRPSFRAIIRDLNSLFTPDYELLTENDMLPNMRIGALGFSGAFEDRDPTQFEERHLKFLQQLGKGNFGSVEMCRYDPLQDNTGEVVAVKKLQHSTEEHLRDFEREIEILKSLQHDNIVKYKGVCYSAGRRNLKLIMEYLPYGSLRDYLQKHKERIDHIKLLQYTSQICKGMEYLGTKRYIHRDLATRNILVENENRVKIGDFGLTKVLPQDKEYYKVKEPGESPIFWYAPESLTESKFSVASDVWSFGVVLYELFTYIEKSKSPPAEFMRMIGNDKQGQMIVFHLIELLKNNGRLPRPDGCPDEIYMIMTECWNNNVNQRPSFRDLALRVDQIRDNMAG

LCK = LCK (Homo sapiens, UniProt P06239); assay: Z'-LYTE kinase selectivity; assay type: biochemical
CaMK2 alpha = CaMK2 alpha (Homo sapiens, UniProt Q9UQM7); assay: Z'-LYTE kinase selectivity; assay type: biochemical
[9] = 5 mg/kg PO QD×4 W, day 0 after administration
[10] = 5 mg/kg PO QD×4 W, day 3 after administration
[11] = 5 mg/kg PO QD×4 W, day 7 after administration
[12] = 5 mg/kg PO QD×4 W, day 10 after administration
[13] = 5 mg/kg PO QD×4 W, day 14 after administration
[14] = 5 mg/kg PO QD×4 W, day 17 after administration
[15] = 5 mg/kg PO QD×4 W, day 21 after administration
[16] = 5 mg/kg PO QD×4 W, day 24 after administration
[17] = 5 mg/kg PO QD×4 W, day 27 after administration
[18] = 10 mg/kg (D0-D7)/2.5 mg/kg PO QD×4 W, day 0 after administration
[19] = 10 mg/kg (D0-D7)/2.5 mg/kg PO QD×4 W, day 3 after administration
[20] = 10 mg/kg (D0-D7)/2.5 mg/kg PO QD×4 W, day 7 after administration
[21] = 10 mg/kg (D0-D7)/2.5 mg/kg PO QD×4 W, day 10 after administration
[22] = 10 mg/kg (D0-D7)/2.5 mg/kg PO QD×4 W, day 14 after administration
[23] = 10 mg/kg (D0-D7)/2.5 mg/kg PO QD×4 W, day 17 after administration
[24] = 10 mg/kg (D0-D7)/2.5 mg/kg PO QD×4 W, day 21 after administration
[25] = 10 mg/kg (D0-D7)/2.5 mg/kg PO QD×4 W, day 24 after administration
[26] = 10 mg/kg (D0-D7)/2.5 mg/kg PO QD×4 W, day 27 after administration
[27] = 15 mg/kg PO QD×4 W, day 0 after administration
[28] = 15 mg/kg PO QD×4 W, day 3 after administration
[29] = 15 mg/kg PO QD×4 W, day 7 after administration
[30] = 15 mg/kg PO QD×4 W, day 10 after administration
[31] = 15 mg/kg PO QD×4 W, day 14 after administration
[32] = 15 mg/kg PO QD×4 W, day 17 after administration
[33] = 15 mg/kg PO QD×4 W, day 21 after administration
[34] = 15 mg/kg PO QD×4 W, day 24 after administration
[35] = 15 mg/kg PO QD×4 W, day 27 after administration

Chain of MINK (Q8N4C8 whole entry): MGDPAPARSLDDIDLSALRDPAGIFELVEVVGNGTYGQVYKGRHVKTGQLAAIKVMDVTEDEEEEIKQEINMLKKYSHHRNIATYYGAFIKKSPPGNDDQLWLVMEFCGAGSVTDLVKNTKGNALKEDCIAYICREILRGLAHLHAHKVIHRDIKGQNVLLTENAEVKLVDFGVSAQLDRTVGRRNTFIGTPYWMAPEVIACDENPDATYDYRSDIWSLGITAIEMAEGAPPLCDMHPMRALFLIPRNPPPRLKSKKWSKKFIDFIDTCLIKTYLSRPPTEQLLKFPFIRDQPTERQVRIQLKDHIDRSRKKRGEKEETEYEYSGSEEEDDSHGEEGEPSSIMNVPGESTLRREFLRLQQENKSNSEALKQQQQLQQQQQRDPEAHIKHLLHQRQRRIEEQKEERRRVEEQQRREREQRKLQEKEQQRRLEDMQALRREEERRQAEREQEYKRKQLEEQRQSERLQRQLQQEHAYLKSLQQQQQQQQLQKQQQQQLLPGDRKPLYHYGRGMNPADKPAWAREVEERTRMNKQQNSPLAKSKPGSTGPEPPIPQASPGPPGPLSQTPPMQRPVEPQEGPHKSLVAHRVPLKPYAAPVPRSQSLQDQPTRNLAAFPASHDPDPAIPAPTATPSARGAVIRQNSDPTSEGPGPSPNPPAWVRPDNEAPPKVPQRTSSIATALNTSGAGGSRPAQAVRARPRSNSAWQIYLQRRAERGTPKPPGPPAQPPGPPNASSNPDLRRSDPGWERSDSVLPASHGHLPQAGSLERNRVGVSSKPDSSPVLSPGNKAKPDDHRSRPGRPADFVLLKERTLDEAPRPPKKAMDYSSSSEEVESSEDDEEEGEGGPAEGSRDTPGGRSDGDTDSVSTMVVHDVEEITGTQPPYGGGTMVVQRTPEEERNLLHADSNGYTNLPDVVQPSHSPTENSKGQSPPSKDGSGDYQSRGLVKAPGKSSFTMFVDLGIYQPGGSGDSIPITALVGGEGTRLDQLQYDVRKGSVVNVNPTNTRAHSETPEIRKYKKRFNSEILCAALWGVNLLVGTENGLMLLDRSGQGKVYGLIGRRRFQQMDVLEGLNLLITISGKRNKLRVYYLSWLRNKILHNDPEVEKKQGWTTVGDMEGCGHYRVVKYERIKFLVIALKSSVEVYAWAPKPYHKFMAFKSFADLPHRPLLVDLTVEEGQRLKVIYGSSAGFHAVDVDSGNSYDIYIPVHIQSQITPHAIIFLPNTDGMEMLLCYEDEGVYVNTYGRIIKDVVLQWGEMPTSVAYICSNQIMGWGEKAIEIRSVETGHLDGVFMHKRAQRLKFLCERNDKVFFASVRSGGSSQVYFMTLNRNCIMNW

## COc1cc(N2CCC3(CCN(C)CC3)CC2)ccc1Nc1ncc(Cl)c(Nc2ccccc2P(C)(C)=O)n1 [Iruplinalkib]
PKA
  IC50: > 10000 nM
MINK
  IC50: 3890 ± 1060 nM
INSR
  IC50: 699 ± 261 nM
MST4
  IC50: 1400 ± 251 nM
[1]; [9]
  Tumor volume Mean: 149 mm³
  Tumor volume: 165
[1]; [10]
  Tumor volume Mean: 127 mm³
  Tumor volume: 165
[1]; [11]
  Tumor volume Mean: 82 mm³
  Tumor volume: 96
[1]; [12]
  Tumor volume Mean: 79 mm³
  Tumor volume: 80
[1]; [13]
  Tumor volume Mean: 70 mm³
  Tumor volume: 75
[1]; [14]
  Tumor volume Mean: 81 mm³
  Tumor volume: 96
[1]; [15]
  Tumor volume Mean: 89 mm³
  Tumor volume: 121
[1]; [16]
  Tumor volume Mean: 85 mm³
  Tumor volume: 118
[1]; [17]
  Tumor volume Mean: 94 mm³
  Tumor volume: 104
[1]; [18]
  Tumor volume Mean: 150 mm³
  Tumor volume: 136 and 117
[1]; [19]
  Tumor volume Mean: 124 mm³
  Tumor volume: 115 and 76
[1]; [20]
  Tumor volume Mean: 77 mm³
  Tumor volume: 71 and 51
[1]; [21]
  Tumor volume Mean: 60 mm³
  Tumor volume: 49 and 43
[1]; [22]
  Tumor volume Mean: 63 mm³
  Tumor volume: 48
[1]; [23]
  Tumor volume Mean: 77 mm³
  Tumor volume: 58
[1]; [24]
  Tumor volume Mean: 107 mm³
  Tumor volume: 56
[1]; [25]
  Tumor volume Mean: 106 mm³
  Tumor volume: 57
[1]; [26]
  Tumor volume Mean: 127 mm³
  Tumor volume: 65 and 99
[1]; [27]
  Tumor volume Mean: 149 mm³
  Tumor volume: 101 and 162 and 129 and 99 and 217 and 147 and 109 and 207 and 174
[1]; [28]
  Tumor volume Mean: 115 mm³
  Tumor volume: 81 and 117 and 84 and 63 and 150 and 118 and 79 and 154 and 190
[1]; [29]
  Tumor volume Mean: 66 mm³
  Tumor volume: 51 and 61 and 57 and 56 and 78 and 72 and 52 and 71 and 98
[1]; [30]
  Tumor volume Mean: 54 mm³
  Tumor volume: 48 and 61 and 44 and 35 and 63 and 79 and 45
[1]; [31]
  Tumor volume Mean: 49 mm³
  Tumor volume: 41 and 57 and 43 and 31 and 72 and 46 and 44 and 60
[1]; [32]
  Tumor volume Mean: 51 mm³
  Tumor volume: 44 and 92 and 41 and 24 and 68 and 47 and 32 and 42
[1]; [33]
  Tumor volume Mean: 49 mm³
  Tumor volume: 35 and 87 and 45 and 30 and 53 and 59 and 37 and 41 and 57
[1]; [34]
  Tumor volume Mean: 43 mm³
  Tumor volume: 29 and 56 and 37 and 23 and 45 and 53 and 34 and 22 and 91
[1]; [35]
  Tumor volume Mean: 49 mm³
  Tumor volume: 30 and 67 and 38 and 27 and 62 and 54 and 44 and 42 and 78
[1]; LU-01-0015 and NCI-H3122 xenograft models, all P < 0.05
  tumor growth inhibition: able to inhibit tumor growth
[1]; crizotinib-resistant model
  tumor inhibition effect compared with brigatinib: significantly better than that of brigatinib
[1]; nude mouse xenograft models (LU-01-0015, NCI-H3122), all P ≥ 0.05
  effect on body weight: no effect
[2]
  IC50: 4 nM
[3]
  IC50: 9 nM
MAPKAPK2
  IC50: > 10000 nM
KDR
  IC50: 260 ± 128 nM
[4]
  IC50: 4.05 nM
Ba/F3 cells
  IC50: 2210 ± 94 nM
[5]
  IC50: 342 nM
[6]
  IC50: 4.5 ± 0.7 nM
[7]
  IC50: 508 ± 96 nM
[8]
  IC50: 228 nM
CHK1
  IC50: 185 ± 41 nM
TAOK2
  IC50: 1500 ± 442 nM
JAK2
  IC50: 595 ± 12 nM
LCK
  IC50: 825 ± 243 nM
CaMK2 alpha
  IC50: 939 ± 99 nM
